Measured values reported in US20220313629A1, “TRANSIENT POTENTIAL MELASTATIN 8 (TRPM8) ANTAGONISTS AND RELATED METHODS” (MARSHALL UNIVERSITY RESEARCH CORPORATION, priority 2019, published 2022).

Key:
[1] = molecular target: T1, TRPM8 (Homo sapiens, UniProt Q7Z2W7); experiment: TRPM8 antagonist activity by Fura-2 Ca2+ imaging in HEK-293 cells stably expressing human TRPM8; assay type: cell-based; conditions: for IC50: read-out: Functional Activity hTRPM8 potency IC50 ± SEM
[2] = molecular target: T1, TRPM8; experiment: Whole-cell patch-clamp electrophysiology, menthol-evoked TRPM8 currents in HEK-293 cells transiently transfected with human TRPM8; assay type: cell-based
Protocol: HEK-293 Cell culture. Human embryonic kidney (HEK) 293 cells (ATCC CRL-1573) were cultured in growth medium comprising 90% Dulbecco's modified Eagle's medium, 10% fetal bovine serum, 100 U·mL-1 penicillin-streptomycin, and 2 mM L-glutamine (Gibco). Cells were cultured in 35 mm polystyrene dishes (Falcon) at 37° C. in the presence of 5% CO2. Cells were transiently transfected with human TRPM8 in a pIRES2 plasmid containing EGFP as a reporter. This plasmid expresses bicistronic mRNA with an internal ribosome entry site (IRES) positioned between the TRPM8 gene and the fluorescent protein reporter gene such that the reporter is not covalently fused to TRPM8. […]
Whole-cell patch-clamp electrophysiology. […] Osmolality was measured using a Vapro 5600 vapor pressure osmometer (Wescor). […] Pipettes had resistances of 2-5 MO as measured in the extracellular solution. […] Current response from each cell was measured under each concentration of Compound 14. Only one cell was measured per cover slip to prevent confounding effects of previous exposure to menthol and Compound 14.
Data analysis. For each cell, current magnitude at each concentration of Compound 14 was normalized by dividing by the maximum current measured at 500 μM menthol and without the antagonist. Normalized currents from six cells were averaged at each concentration of antagonist, and the standard error of the mean was calculated at each point. […]

[3] = molecular target: human TRPA1 (Homo sapiens, UniProt O75762); experiment: TRPA1 agonist and antagonist Ca2+ flux assay (FLIPR, Fluo-8) in HEK293 cells stably expressing human TRPA1; assay type: cell-based; conditions: for hTRPA1 % Activation (n = 3-5): normalized to Emax of AITC (300 μM)
[4] = system: icilin-induced wet-dog shakes (WDS) in ICR (CD1) mice; experiment: Wet-dog shakes (WDS) assay, icilin-induced; assay type: in vivo, mouse
[5] = HEK293, read-out: hTRPA1 % Inhibition (n = 3)

T1 sequence (Q7Z2W7 whole entry): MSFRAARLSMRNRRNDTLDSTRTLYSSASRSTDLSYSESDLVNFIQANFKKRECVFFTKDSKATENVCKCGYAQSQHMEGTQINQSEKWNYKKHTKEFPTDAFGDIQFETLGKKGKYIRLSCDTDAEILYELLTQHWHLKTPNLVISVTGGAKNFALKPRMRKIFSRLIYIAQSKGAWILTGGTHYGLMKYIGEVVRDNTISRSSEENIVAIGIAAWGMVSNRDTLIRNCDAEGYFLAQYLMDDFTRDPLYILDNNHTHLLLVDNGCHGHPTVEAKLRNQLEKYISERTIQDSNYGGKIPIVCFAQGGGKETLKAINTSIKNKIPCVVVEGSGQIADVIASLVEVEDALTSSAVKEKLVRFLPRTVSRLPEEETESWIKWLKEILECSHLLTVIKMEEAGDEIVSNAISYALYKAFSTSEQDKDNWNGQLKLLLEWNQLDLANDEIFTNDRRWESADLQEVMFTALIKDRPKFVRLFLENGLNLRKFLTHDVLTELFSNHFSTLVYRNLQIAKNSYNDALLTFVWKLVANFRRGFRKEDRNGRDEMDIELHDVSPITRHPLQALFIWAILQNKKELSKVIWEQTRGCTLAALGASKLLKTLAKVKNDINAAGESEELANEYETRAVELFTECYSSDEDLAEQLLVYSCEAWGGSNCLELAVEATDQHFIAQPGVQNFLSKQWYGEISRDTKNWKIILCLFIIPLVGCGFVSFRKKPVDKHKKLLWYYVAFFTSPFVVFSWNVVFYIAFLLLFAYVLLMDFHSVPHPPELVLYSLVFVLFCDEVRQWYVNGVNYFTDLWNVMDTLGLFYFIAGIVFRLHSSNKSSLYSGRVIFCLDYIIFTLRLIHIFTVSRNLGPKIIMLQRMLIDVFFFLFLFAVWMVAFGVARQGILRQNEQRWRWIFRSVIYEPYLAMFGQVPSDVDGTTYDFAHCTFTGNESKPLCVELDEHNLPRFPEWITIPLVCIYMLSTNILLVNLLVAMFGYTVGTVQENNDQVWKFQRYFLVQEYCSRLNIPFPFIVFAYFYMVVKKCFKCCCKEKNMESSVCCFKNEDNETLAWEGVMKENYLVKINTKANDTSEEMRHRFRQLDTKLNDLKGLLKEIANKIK
Sequence of human TRPA1 (O75762 whole entry): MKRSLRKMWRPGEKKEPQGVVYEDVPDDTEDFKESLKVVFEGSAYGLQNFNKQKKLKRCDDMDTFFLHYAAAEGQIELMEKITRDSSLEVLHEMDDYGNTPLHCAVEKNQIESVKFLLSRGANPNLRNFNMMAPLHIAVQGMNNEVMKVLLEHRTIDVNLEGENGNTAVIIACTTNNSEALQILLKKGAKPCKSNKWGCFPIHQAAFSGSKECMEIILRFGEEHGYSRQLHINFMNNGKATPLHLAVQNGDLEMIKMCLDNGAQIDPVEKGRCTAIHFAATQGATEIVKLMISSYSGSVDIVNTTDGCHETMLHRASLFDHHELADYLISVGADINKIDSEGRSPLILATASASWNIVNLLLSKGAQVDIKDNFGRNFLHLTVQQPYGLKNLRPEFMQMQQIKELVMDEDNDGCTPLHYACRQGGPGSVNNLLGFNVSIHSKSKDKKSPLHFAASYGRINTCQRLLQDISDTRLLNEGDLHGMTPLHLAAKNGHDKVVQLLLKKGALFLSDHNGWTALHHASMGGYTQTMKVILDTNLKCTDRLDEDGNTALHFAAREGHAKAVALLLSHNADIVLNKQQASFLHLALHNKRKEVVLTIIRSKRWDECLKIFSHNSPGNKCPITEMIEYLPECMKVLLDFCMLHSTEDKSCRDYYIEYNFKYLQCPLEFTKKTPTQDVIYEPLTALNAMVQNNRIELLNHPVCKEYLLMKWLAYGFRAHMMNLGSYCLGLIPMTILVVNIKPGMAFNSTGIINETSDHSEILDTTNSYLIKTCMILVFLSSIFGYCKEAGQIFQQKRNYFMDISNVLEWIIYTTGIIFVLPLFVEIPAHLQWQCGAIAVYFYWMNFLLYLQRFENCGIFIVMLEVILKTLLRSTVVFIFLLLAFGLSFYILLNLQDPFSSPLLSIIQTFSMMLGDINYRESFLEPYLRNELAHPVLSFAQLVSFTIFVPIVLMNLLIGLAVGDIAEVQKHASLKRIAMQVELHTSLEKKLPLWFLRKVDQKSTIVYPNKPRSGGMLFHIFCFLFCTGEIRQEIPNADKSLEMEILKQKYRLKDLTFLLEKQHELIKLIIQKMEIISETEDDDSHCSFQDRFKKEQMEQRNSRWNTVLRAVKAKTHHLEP

Structure (SMILES): O=C(NC1CCC2(CCCC2)CC1)c1ccc(-c2ccccc2)cc1 [Compound 14, N-(spiro[4.5]decan-8-yl)-[1,1′-biphenyl]-4-carboxamide]
- effect on menthol-evoked TRPM8-mediated Ca2+ entry ([1]; compound at 3 nM against maximal (100 μM) menthol): significantly (P<0.01) reduce TRPM8-mediated Ca^2+ entry triggered by menthol
- effect on icilin-induced Ca2+ influx at higher concentrations ([1]; higher concentrations of the dose-response curve): nearly abolishes the Ca^2+ influx
- lowest concentration still causing significant reduction in icilin-evoked TRPM8-mediated Ca2+ entry ([1]; icilin 500 nM): 3 nM
- IC50 ([1]; inhibition of icilin (500 nM)-evoked Ca2+ entry, HEK-293 cells stably expressing hTRPM8, mean ± SEM, three independent experiments): 2.4 ± 1 nM
- IC50 [1]: ≤ 10 nM
- antagonist activity relative to a tryptamine-based antagonist in the same assay ([2]; patch clamp): 6 fold
- IC50 ([2]; whole-cell patch clamp, +80 mV, 500 μM menthol, n=6 cells, read-out: IC50, inhibition of menthol-evoked TRPM8 currents): 64 ± 2 nM
- inhibition at 0.003 µM [3, 5]: -6 ± 5%
- inhibition at 0.03 µM [3, 5]: -3 ± 2%
- effect on hTRPA1-mediated responses (intrinsic and antagonist activity) ([3]; at concentrations 13- to 25-fold higher than hTRPM8 IC50): do not affect
- selectivity for TRPM8 vs. TRPA1 ([3]; from FLIPR single-point assays): 13 fold
- hTRPA1 % Activation (n = 3-5) ([3]; tested at 3 nM): −0.8 ± 0.4%
- hTRPA1 % Activation (n = 3-5) ([3]; tested at 30 nM): 0.1 ± 1.2%
- inhibition of WDS at the highest dose compared with gabapentin ([4]; 50 mg/kg s.c., gabapentin 25 mg/kg s.c.): efficacy comparable to that observed with a standard analgesic dose of gabapentin
- effect on icilin-induced wet-dog shakes ([4]; 1, 30 and 50 mg/kg s.c. 30 minutes before icilin (10 mg/kg i.p.)): marked, dose-dependent antinociceptive behavior
